# In publication PMC10816808, “Enhancement of the Antitumor and Antimetastatic Effect of Topotecan and Normalization of Blood Counts in Mice with Lewis Carcinoma by Tdp1 Inhibitors—New Usnic Acid Derivatives” (International Journal of Molecular Sciences, 2024):
# Experiments:
# [1] = MTT cytotoxicity test, T98G; format: cell-based; conditions: human, T98G cells (glioblastoma), read-out: semitoxic concentration (CC50), T98G
# Source text: (§1) Compounds 6 and 8 with a bromophenol residue in the enamine fragment have a weak or moderate effect on cell survival (Table 1 and Supplementary Figure S1).
# (§2) Cytotoxicity of the compounds against human tumor cell lines: HeLa (cervical cancer), HCT-116 (colorectal cancer), A-549 (lung cancer), MCF-7 (breast cancer), T98G (glioblastoma), HepG2 (hepatocarcinoma), and nontumor cell lines: MRC-5 (lung fibroblasts) and HEK293A (human embryonic kidney) was examined using the MTT test. HCT-116 and MRC-5 cell lines were provided by the Cell Culture Bank of the State Research Center for Virology and Biotechnology Vector, Novosibirsk, Russia. A-549, MCF-7, and T98G cell lines were obtained from the Russian Cell Culture Collection (RCCC) Institute of Cytology RAS (St. Petersburg, Russia). HEK293A cells were purchased (ThermoFisher Scientific, Waltham, MA, USA).
# (§3) The cell culture medium DMEM medium (Invitrogen, Carlsbad, CA, USA) contained 10% fetal bovine serum (FBS) (Invitrogen), penicillin (100 units/mL), and streptomycin (100 µg/mL). Cells were seeded into 96-well plates at 5000 cells per well and grown at 37 °C and 5% CO2 in a humid atmosphere. At 30–50% confluence, the tested compounds were added to the medium to a final DMSO content of 1%. Control wells contained 1% DMSO. To determine the cytotoxicity of Tdp1 inhibitors, the cells were treated with compounds with concentrations ranging from 1 to 100 µM for 72 h at 37 °C for 72 h. All measurements were repeated a minimum of twice.
# [2] = tested on: various types of cultured cells; test: MTT test, panel of cultured cell lines; format: cell-based; conditions: at concentrations up to 100 μM; wide panel of tumor and non-cancerous cell lines
# Source text: as §1, §2
# as §3, with “To determine the cytotoxicity of Tdp1 inhibitors, the cells were treated with compounds with concentrations ranging from 1 to 100 µM for 72 h at 37 °C for 72 h. All measurements were repeated a minimum of twice.” left out
# [3] = target: T1, Tdp1 (Homo sapiens, UniProt Q9NUW8); test: Tdp1 inhibition, fluorescent oligonucleotide biosensor; format: biochemical; conditions: purified Tdp1 1.5 nM, 50 nM biosensor; read-out: Concentration of half-maximal inhibition of Tdp1 (IC50)
# T1 construct: Purified Tdp1 (1.5 nM) triggered the reaction
# Source text: The inhibitory properties of the compound on the purified Tdp1 was studied using a technique developed previously by our team. A 16-mer single-stranded oligonucleotide carrying a fluorophore at the 5′-end and a quencher at the 3′-end was used as a biosensor. When within the Förster radius, the quencher suppressed the fluorescence of the fluorophore. The quencher was removed by Tdp1, resulting in fluorescence emission. Usnic acid derivatives with a bromophenol residue in the enamine fragment (compounds 6 and 8) inhibit the enzyme with half-maximal inhibition concentrations (IC50) an order of magnitude worse than derivatives with a di-tert-butyl fragment (compounds 5 and 7).
# An oligonucleotide 5′-[FAM] AAC GTC AGGGTC TTC C [BHQ1]-3′ synthesized in the laboratory Laboratory of Nucleic Acids Chemistry at the Institute of Chemical Biology and Fundamental Medicine (Novosibirsk, Russia) was used as a biosensor. Removal of the quencher (BHQ1) due to enzyme activity leads to increased fluorescence of FAM. The reaction was carried out at different concentrations of inhibitors (1.5% of DMSO, Sigma, St. Louis, MO, USA, in the control samples). The reaction mixtures contained Tdp1 buffer (50 mM Tris-HCl pH 8.0, 50 mM NaCl, and 7 mM β-mercaptoethanol), 50 nM biosensor, and an inhibitor being tested. Purified Tdp1 (1.5 nM) triggered the reaction.
# The fluorescence was measured using POLARstar OPTIMA fluorimeter (BMG LABTECH, GmbH, Ortenberg, Germany). The values of IC50 were determined in minimum three independent experiments and were calculated using embedded software MARS Data Analysis 2.0 (BMG LABTECH, GmbH, Ortenberg, Germany).
# [4] = MTT cytotoxicity test, MRC-5; format: cell-based; conditions: human, MRC-5 cells (lung fibroblasts, nontumor), read-out: semitoxic concentration (CC50), MRC-5
# Source text: as §1, §2, §3
# [5] = MTT cytotoxicity test, HCT-116; format: cell-based; conditions: human, HCT-116 cells (colorectal cancer), read-out: semitoxic concentration (CC50), HCT-116
# Source text: as §1, §2, §3
# [6] = MTT cytotoxicity test, HeLa; format: cell-based; conditions: human, HeLa cells (cervical cancer), read-out: semitoxic concentration (CC50), HeLa
# Source text: as §1, §2, §3
# [7] = tested on: HCT-116; test: Topotecan cytotoxicity with Tdp1 inhibitor (MTT), HCT-116; format: cell-based; conditions: Homo sapiens, topotecan alone or in the presence of 5 µM Tdp1 inhibitor
# Source text: (§4) Tdp1 inhibitors combined with topotecan dramatically reduce tumor metastasis. Usnic acid derivatives of the enamine and hydrazonothiazole series turned out to be promising sensitizers of the action of topotecan both on cultured cell lines and on mouse tumors in vivo [30, 32]. We studied the ability of the usnic acid derivatives to sensitize the effects of topotecan on the same panel of cell lines. We used two non-cancerous cell lines MRC-5 and HEK293A, including previously obtained HEK293A Tdp1 knockout cells (for compound 7), and cancerous cell lines HeLa, HCT-116, A-549, MCF-7, T98G. We found the most pronounced and reliable sensitizing effect on cancerous cell lines HeLa, HCT-116, A-549, MCF-7 only for compound 7 (Table 2 and Figures S2 and S3).
# as §2, with “HEK293A cells were purchased (ThermoFisher Scientific, Waltham, MA, USA).” left out
# [8] = tested on: MCF-7; test: Topotecan cytotoxicity with Tdp1 inhibitor (MTT), MCF-7; format: cell-based; conditions: Homo sapiens, MCF7; topotecan alone or in the presence of 5 µM Tdp1 inhibitor
# Source text: as §4
# as §2, with “HEK293A cells were purchased (ThermoFisher Scientific, Waltham, MA, USA).” left out
# [9] = tested on: T98G; test: Topotecan cytotoxicity with Tdp1 inhibitor (MTT), T98G; format: cell-based; conditions: Homo sapiens, topotecan alone or in the presence of 5 µM Tdp1 inhibitor
# Source text: as §4
# as §2, with “HEK293A cells were purchased (ThermoFisher Scientific, Waltham, MA, USA).” left out
# [10] = Topotecan cytotoxicity with Tdp1 inhibitor (MTT), HEK293A; format: cell-based; conditions: human, HEK293A cells (embryonic kidney, nontumor); topotecan alone or in the presence of 5 µM Tdp1 inhibitor
# Source text: as §4
# as §2, with “HEK293A cells were purchased (ThermoFisher Scientific, Waltham, MA, USA).” left out
# [11] = Topotecan cytotoxicity with Tdp1 inhibitor (MTT), MRC-5; format: cell-based; conditions: human, MRC-5 cells (lung fibroblasts, nontumor); topotecan alone or in the presence of 5 µM Tdp1 inhibitor
# Source text: as §4
# as §2, with “HEK293A cells were purchased (ThermoFisher Scientific, Waltham, MA, USA).” left out
# [12] = tested on: A-549; test: Topotecan cytotoxicity with Tdp1 inhibitor (MTT), A-549; format: cell-based; conditions: Homo sapiens, A549; topotecan alone or in the presence of 5 µM Tdp1 inhibitor
# Source text: as §4
# as §2, with “HEK293A cells were purchased (ThermoFisher Scientific, Waltham, MA, USA).” left out
# [13] = tested on: HeLa; test: Topotecan cytotoxicity with Tdp1 inhibitor (MTT), HeLa; format: cell-based; conditions: Homo sapiens, topotecan alone or in the presence of 5 µM Tdp1 inhibitor
# Source text: as §4
# as §2, with “HEK293A cells were purchased (ThermoFisher Scientific, Waltham, MA, USA).” left out
# T1 sequence (Q9NUW8 whole entry): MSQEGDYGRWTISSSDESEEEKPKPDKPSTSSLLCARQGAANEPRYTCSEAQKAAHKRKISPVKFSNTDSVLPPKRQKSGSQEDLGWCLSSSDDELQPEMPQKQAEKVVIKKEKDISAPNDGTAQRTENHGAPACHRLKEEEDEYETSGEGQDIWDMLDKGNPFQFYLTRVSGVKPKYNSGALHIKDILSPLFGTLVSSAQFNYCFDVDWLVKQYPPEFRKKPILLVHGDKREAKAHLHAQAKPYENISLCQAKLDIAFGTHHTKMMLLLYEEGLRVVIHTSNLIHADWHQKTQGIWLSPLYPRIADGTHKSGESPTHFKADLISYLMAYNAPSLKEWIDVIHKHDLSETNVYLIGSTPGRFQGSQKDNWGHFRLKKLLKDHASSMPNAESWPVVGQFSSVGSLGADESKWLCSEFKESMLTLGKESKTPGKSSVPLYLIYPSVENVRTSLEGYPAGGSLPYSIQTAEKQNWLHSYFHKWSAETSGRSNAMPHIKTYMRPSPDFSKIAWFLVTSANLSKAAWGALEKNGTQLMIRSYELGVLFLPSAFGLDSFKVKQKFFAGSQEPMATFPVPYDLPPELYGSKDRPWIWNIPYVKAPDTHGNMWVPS
Structure (SMILES),CC50 at 72 h [1],"living cells (metabolic activity, MTT) [2]",IC50 [3],CC50 at 72 h [4],CC50 at 72 h [5],CC50 at 72 h [6],CC50 [7],CC50 [8],CC50 [9],CC50 [10],CC50 [11],CC50 [12],CC50 [13]
"C/C(NCCCc1cc(C(C)(C)C)c(O)c(C(C)(C)C)c1)=C1\C(=O)C=C2Oc3c(-c4csc(N/N=C/c5ccc(Br)cc5)n4)c(O)c(C)c(O)c3[C@@]2(C)C1=O [Compound 7, (4E)-10-{2-[(E)-2-[(4-bromophenyl)methylidene]hydrazin-1-yl]-1,3-thiazole-4-yl}-4-(1-{[3-(3,5-di-tret-butyl-4-hydroxyhenyl)propyl]amino}ethylidene)-11,13-dihydroxy-2,12-dimethyl-8-oxatricyclo [7.4.0.02,7]trideca-1(13),6,9,11-tetraen-3,5-dione]",> 100000 nM,more than 50%,120 ± 10 nM,> 100000 nM,> 100000 nM,> 100000 nM,,,,,,,
"CC[C@@]1(O)C(=O)OCc2c1cc1n(c2=O)Cc2cc3c(CN(C)C)c(O)ccc3nc2-1 [Tpc, topotecan]",,,,,,,810 nM,1400 nM,2500 nM,33 nM,> 10000 nM,1500 nM,9900 nM
